Reference: patent US20240208954A1, “OXADIAZOLE COMPOUND, PREPARATION METHOD THEREFOR, PHARMACEUTICAL COMPOSITION AND USE THEREOF” (SHANGHAI INSTITUTE OF MATERIA MEDICA, CHINESE ACADEMY OF …, priority 2020, published 2024)
Read-outs that look alike come from different tables or passages of the source.

Legend:
Format in all cases: cell-based
S1PR3 = S1PR3 (Homo sapiens, UniProt Q99500); test: Agonistic activity test on S1P receptors, FLIPR
Procedure: (§1) Instrument: FLIPR™ TETRA (Molecular Device)
(§2) Sample processing: Before the experiment, the working solution with the corresponding concentration was prepared by diluting with GPCR dilution buffer.
(§3) After 18-20 hours, the cell culture plat was taken out and added with dye working solution, and then the plate was placed in a 37° C./5% CO2 incubator for 1 hour, and finally equilibrated at room temperature for 15 minutes. Positive agonist working solution was added, and RFU values were detected and recorded. […] The positive agonist working fluid was added to the cell culture plate at the 21st second. […] The antagonistic mode detection program, the overall detection time of the instrument was 120 seconds, and positive antagonist working solution was added to the cell culture plate at the 21st second.
(§4) Data processing: Raw data were obtained via ScreenWorks (version 3.1) and saved as *FMD files on the Kingsray computer network system. Data were collected and analyzed using Excel and GraphPad Prism 6 software programs. For each well, the average fluorescence intensity value from 1 to 20 seconds was used as the baseline, and the maximum fluorescence intensity value from 21 to 120 seconds minus the minimum fluorescence intensity value from 21 to 120 seconds was the relative fluorescence intensity value (ARFU), from which the percentage activation or inhibition can be calculated based on the following equation.
(§5) % Activation Rate=(ΔRFUCompound-ΔRFUBackground)/(ΔRFUAgonist control-ΔRFUBackground)×100%
(§6) The data was analyzed using GraphPad Prism 6 with a four-parameter equation to calculate the EC50 and IC50 values. The four-parameter equation was as follows: y=Bottom+(Top-Bottom)/(1+10^((LogEC50/IC50-X)*HillSlope)), wherein X is the Log value of the concentration and Y was the inhibition rate.

S1PR1 = molecular target: T1, S1PR1 (Homo sapiens, UniProt P21453); test: Agonistic activity test on S1P receptors, FLIPR, CHO-K1/Ga15/EDG1 cells
T1 construct: host or cells: CHO-K1 co-expressing Ga15
T1 sequence (P21453 whole entry): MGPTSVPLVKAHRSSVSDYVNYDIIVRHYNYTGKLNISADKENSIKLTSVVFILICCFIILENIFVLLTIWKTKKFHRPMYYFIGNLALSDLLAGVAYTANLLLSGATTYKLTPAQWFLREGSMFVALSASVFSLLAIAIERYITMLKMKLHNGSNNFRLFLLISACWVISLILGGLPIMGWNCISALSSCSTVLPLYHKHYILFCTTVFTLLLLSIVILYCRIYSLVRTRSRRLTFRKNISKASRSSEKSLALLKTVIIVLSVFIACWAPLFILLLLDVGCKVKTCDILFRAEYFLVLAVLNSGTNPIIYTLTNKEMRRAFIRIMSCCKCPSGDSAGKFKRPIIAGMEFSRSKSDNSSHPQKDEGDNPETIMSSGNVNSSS
Procedure: as §1
Experimental materials: CHO-K1/Ga15/EDG1 cells constructed by GenScript autonomously.
as §2, §3, §4, §5, §6

S1P5 = S1P5 (Homo sapiens, UniProt Q9H228); test: Subtype selectivity study, method of Experimental Example 1
S1P5, sequence (Q9H228 whole entry, species assumed): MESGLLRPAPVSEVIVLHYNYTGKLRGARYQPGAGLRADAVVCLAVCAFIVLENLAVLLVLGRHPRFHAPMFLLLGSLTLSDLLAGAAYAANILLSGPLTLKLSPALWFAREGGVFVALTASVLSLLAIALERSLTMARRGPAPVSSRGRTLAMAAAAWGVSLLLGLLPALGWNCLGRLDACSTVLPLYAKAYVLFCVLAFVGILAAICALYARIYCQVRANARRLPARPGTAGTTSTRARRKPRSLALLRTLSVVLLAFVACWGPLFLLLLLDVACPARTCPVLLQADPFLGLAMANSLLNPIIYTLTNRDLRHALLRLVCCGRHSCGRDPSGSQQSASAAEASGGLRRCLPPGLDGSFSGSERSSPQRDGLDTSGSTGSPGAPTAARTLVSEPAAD
Procedure: (§7) Experimental method: CHO-K1/Ga15/EDG1 cells stably expressing EDG1 receptor were cultured in a 10 cm culture dish in a 37° C./5% CO2incubator, and digested when the confluence rate reached 80%-85%. The cells in collected cell suspension were inoculated into 384 microtiter plates at appropriate density, and then placed in a 37° C./5% CO2 incubator and continue to incubate for at least 18 hours before using for experiments. After 18-20 hours, the cell culture plat was taken out and added with dye working solution, and then the plate was placed in a 37° C./5% CO2 incubator for 1 hour, and finally equilibrated at room temperature for 15 minutes. Positive agonist working solution was added, and RFU values were detected and recorded. The 384 microplates, cell plates and tip box with positive agonist working solution were placed into FLIPRTM TETRA and the agonist mode assay program was run with an overall assay time of 120 seconds. The positive agonist working fluid was added to the cell culture plate at the 21st second. 384 microplate, cell plate and gun head box containing the positive antagonist working fluid were put into the FLIPRTM TETRA. The antagonistic mode detection program, the overall detection time of the instrument was 120 seconds, and positive antagonist working solution was added to the cell culture plate at the 21st second. Data processing: Raw data were obtained via ScreenWorks (version 3.1) and saved as *FMD files on the […] computer network system. Data were collected and analyzed using Excel and GraphPad Prism 6 software programs. […] The four-parameter equation was as follows: y=Bottom+(Top-Bottom)/(1+10^((LogEC50/IC50-X)*HillSlope)), wherein X is the Log value of the concentration and Y was the inhibition rate. The S1P receptor selectivity was tested for different subtypes using the method described in Experimental Example 1.

S1P4 = molecular target: T2, S1P4 (Homo sapiens, UniProt O95977); test: as above
T2 sequence (O95977 1-384): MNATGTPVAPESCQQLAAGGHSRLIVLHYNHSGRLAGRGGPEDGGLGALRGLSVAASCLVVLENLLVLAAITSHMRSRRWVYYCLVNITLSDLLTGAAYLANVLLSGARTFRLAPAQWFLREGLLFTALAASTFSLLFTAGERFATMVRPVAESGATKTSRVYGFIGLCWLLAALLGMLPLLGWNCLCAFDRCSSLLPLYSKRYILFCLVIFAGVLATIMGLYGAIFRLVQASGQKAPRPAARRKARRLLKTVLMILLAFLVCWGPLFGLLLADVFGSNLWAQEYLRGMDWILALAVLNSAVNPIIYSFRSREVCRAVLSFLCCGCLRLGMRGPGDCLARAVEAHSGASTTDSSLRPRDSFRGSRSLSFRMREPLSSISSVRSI
Procedure: as §7

S1P2 = S1P2 (Homo sapiens, UniProt O95136); test: as above
S1P2, sequence (O95136 whole entry, species assumed): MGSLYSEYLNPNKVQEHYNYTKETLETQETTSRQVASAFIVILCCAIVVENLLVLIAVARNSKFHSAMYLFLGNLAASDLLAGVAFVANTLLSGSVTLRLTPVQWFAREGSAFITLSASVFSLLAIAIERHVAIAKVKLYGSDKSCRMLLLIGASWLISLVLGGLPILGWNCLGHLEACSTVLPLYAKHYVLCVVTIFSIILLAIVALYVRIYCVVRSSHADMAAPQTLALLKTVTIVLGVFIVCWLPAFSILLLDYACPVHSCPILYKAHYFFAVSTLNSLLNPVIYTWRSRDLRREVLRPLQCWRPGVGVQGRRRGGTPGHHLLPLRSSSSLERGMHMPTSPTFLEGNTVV
Procedure: as §7

[1] = FLIPR agonist mode, read-out: S1PR3 EC50
[2] = CHO-K1/Ga15/EDG1 cells, FLIPR agonist mode, read-out: S1PR1 EC50
[3] = subtype selectivity study, read-out: S1P3 EC50

S1PR3, sequence (Q99500 whole entry, species assumed): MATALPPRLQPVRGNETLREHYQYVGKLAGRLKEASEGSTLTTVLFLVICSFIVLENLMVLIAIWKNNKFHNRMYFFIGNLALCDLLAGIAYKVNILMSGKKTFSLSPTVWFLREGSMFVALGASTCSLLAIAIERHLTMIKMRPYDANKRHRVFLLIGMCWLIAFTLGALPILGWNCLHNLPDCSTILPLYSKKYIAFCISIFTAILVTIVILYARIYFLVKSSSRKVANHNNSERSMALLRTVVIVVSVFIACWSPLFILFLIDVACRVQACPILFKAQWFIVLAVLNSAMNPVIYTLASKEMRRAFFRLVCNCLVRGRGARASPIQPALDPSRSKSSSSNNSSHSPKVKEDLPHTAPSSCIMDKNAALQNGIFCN

SMILES	EC50 (S1PR3; [1])	EC50 (S1PR1; [2])	EC50 (S1PR1; CHO-K1/Ga15/EDG1 cells, FLIPR agonist mode, cells printed in μM, read-out: S1PR1 EC50)	EC50 (S1PR3; [3])	EC50 (S1P5)	EC50 (S1P4)	EC50 (S1P2)	EC50 (S1PR1; subtype selectivity study, read-out: S1P1 EC50)
O=C(O)C1CN(Cc2ccc(-c3noc(-c4cnc5ccccc5c4)n3)c3ccccc23)C1 [Compound A33, 1-((4-(5-(quinolin-3-yl)-1,2,4-oxadiazol-3-yl)naphthalen-1-yl)methyl) azetidine-3-carboxylic acid hydrochloric acid]	> 10000 nM	0.933 µM	–	–	–	–	–	–
O=C(O)C1CN(Cc2ccc(-c3noc(-c4cnc5ccccc5n4)n3)c3ccccc23)C1 [Compound A34, 1-((4-(5-(quinoxaline-2-yl)-1,2,4-oxadiazol-3-yl)naphthalen-1-yl)methyl) azetidine-3-carboxylic acid hydrochloric acid]	> 10000 nM	0.739 µM	–	–	–	–	–	–
O=C(O)C1CN(Cc2ccc(-c3noc(-c4ccc5[nH]ccc5c4)n3)c3ccccc23)C1 [Compound A35, 1-((4-(5-(1H-indole-5-yl)-1,2,4-oxadiazol-3-yl)naphthalen-1-yl)methyl) azetidine-3-carboxylic acid hydrochloric acid]	> 10000 nM	1.96 µM	–	–	–	–	–	–
O=C(O)C1CN(Cc2ccc(-c3noc(-c4cc5ccccc5[nH]4)n3)c3ccccc23)C1 [Compound A36, 1-((4-(5-(1H-indole-2-yl)-1,2,4-oxadiazol-3-yl)naphthalen-1-yl)methyl) azetidine-3-carboxylic acid hydrochloric acid]	> 10000 nM	1.11 µM	–	–	–	–	–	–
Cn1c(-c2nc(-c3ccc(CN4CC(C(=O)O)C4)c4ccccc34)no2)cc2ccccc21 [Compound A37, 1-((4-(5-(1-methyl-1H-indole-2-yl)-1,2,4-oxadiazol-3-yl)naphthalen-1-yl)methyl) azetidine-3-carboxylic acid hydrochloric acid]	> 10000 nM	–	> 10 µM	–	–	–	–	–
O=C(O)C1CN(Cc2ccc(-c3noc(/C=C/c4ccccc4)n3)c3ccccc23)C1 [Compound A38, (E)-1-((4-(5-styryl-1,2,4-oxadiazol-3-yl)naphthalen-1-yl)methyl) azetidine-3-carboxylic acid hydrochloric acid]	> 10000 nM	1.42 µM	–	–	–	–	–	–
O=C(O)C1CN(Cc2ccc(-c3noc(C4CCCCC4)n3)c3ccccc23)C1 [Compound A39, 1-((4-(5-cyclohexyl-1,2,4-oxadiazol-3-yl)naphthalen-1-yl)methyl) azetidine-3-carboxylic acid hydrochloric acid]	> 10000 nM	0.831 µM	–	–	–	–	–	–
CC(C)Oc1ccc(-c2nc(-c3cccc4c3CC[C@@H]4NCCO)no2)cc1C#N [Ozanimod]	> 10000 nM	–	–	2620 nM	10.7 nM	> 10000 nM	> 10000 nM	–
CCc1cc(/C(C)=N/OCc2ccc(C3CCCCC3)c(C(F)(F)F)c2)ccc1CN1CC(C(=O)O)C1 [Siponmod, reference compound]	> 10000 nM	0.547 µM	–	> 1000 nM	0.98 nM	750 nM	> 10000 nM	0.547 µM
